According to PubChem BioAssay (NCI):
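Method: 48-hour compound exposure of cells in 96-well plates, five concentrations, linear interpolation of endpoints. Abbreviation: GI50, concentration required for 50% inhibition of growth. TGI: total growth inhibition.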

Tests used:
Experiment in all cases: NCI-60 cell line screen, 48 h
786-0 renal = system: 786-0 renal
A549 NSCLC = system: A549 NSCLC
ACHN renal = system: ACHN renal
COLO 205 colon = system: COLO 205 colon
HCC-2998 colon = system: HCC-2998 colon
M14 melanoma = system: M14 melanoma
OVCAR-3 ovarian = system: OVCAR-3 ovarian
BT-549 breast = system: BT-549 breast
PC-3 prostate = system: PC-3 prostate
SK-MEL-2 melanoma = system: SK-MEL-2 melanoma

O=C(Nc1nc2ccc([N+](=O)[O-])cc2s1)C(=O)C(C(=O)c1ccncc1)C1OC(=O)c2ccccc21 (stereo not drawn)
TGI (786-0 renal): > 100 µM | TGI (A549 NSCLC): > 100 µM | TGI (ACHN renal): > 100 µM | TGI (COLO 205 colon): > 100 µM | TGI (HCC-2998 colon): > 100 µM | TGI (M14 melanoma): > 100 µM | TGI (OVCAR-3 ovarian): > 100 µM

C=C1C(OC/C=C/COC2O[C@@H]3O[C@@]4(C)CC[C@H]5[C@H](C)CC[C@@H](C2=C)[C@@]35OO4)O[C@@H]2O[C@@]3(C)CC[C@H]4[C@H](C)CC[C@@H]1[C@@]24OO3 (stereo partly drawn)
GI50 (786-0 renal): 0.578 µM | TGI (786-0 renal): 18.7 µM | GI50 (A549 NSCLC): 7.48 µM | TGI (A549 NSCLC): > 60.5 µM | GI50 (ACHN renal): 1.72 µM | TGI (ACHN renal): 17.3 µM | GI50 (BT-549 breast): 3.07 µM | TGI (BT-549 breast): 41.1 µM | GI50 (COLO 205 colon): 0.226 µM | TGI (COLO 205 colon): 13.6 µM | GI50 (M14 melanoma): 10.7 µM | TGI (M14 melanoma): 27.5 µM | TGI (OVCAR-3 ovarian): 11.4 µM | GI50 (PC-3 prostate): < 0.0141 µM | TGI (PC-3 prostate): 32.5 µM | GI50 (SK-MEL-2 melanoma): 16 µM | TGI (SK-MEL-2 melanoma): > 100 µM

O=C1C(=O)N(c2nccs2)C(=O)C(=O)C1c1nc2ccccc2s1
TGI (786-0 renal): > 100 µM | TGI (A549 NSCLC): > 100 µM | TGI (ACHN renal): > 100 µM | TGI (COLO 205 colon): > 100 µM | TGI (HCC-2998 colon): > 100 µM | TGI (M14 melanoma): > 100 µM | TGI (OVCAR-3 ovarian): > 100 µM | TGI (SK-MEL-2 melanoma): > 100 µM

O=C1c2ccccc2-c2c1c1ccc([N+](=O)[O-])cc1c(=O)n2CCCNCCO
GI50 (786-0 renal): 0.0479 µM | TGI (786-0 renal): 0.43 µM | GI50 (A549 NSCLC): 0.946 µM | TGI (A549 NSCLC): 8.75 µM | GI50 (ACHN renal): 0.0496 µM | TGI (ACHN renal): 0.48 µM | GI50 (COLO 205 colon): 1.05 µM | TGI (COLO 205 colon): 2.81 µM | GI50 (HCC-2998 colon): 0.817 µM | TGI (HCC-2998 colon): 2.13 µM | GI50 (M14 melanoma): 0.0904 µM | TGI (M14 melanoma): 1.4 µM | GI50 (OVCAR-3 ovarian): 1.14 µM | TGI (OVCAR-3 ovarian): 2.78 µM | GI50 (PC-3 prostate): 0.0907 µM | TGI (PC-3 prostate): 1.52 µM | GI50 (SK-MEL-2 melanoma): 1.69 µM | TGI (SK-MEL-2 melanoma): 3.82 µM

S=c1sc2cscc2s1
TGI (786-0 renal): 46.5 µM | TGI (A549 NSCLC): 37.5 µM | TGI (ACHN renal): 42.5 µM | TGI (COLO 205 colon): 40.9 µM | TGI (HCC-2998 colon): 32.8 µM | TGI (M14 melanoma): 39.9 µM | TGI (OVCAR-3 ovarian): 54.9 µM | TGI (SK-MEL-2 melanoma): > 100 µM

O=C(NC1C2CC3CC(C2)CC1C3)/C(Cl)=C1/Sc2ccccc2NC1=O (stereo not drawn)
TGI (786-0 renal): > 100 µM | TGI (A549 NSCLC): > 100 µM | TGI (ACHN renal): > 100 µM | TGI (COLO 205 colon): > 100 µM | TGI (HCC-2998 colon): > 100 µM | TGI (M14 melanoma): > 100 µM | TGI (OVCAR-3 ovarian): > 100 µM

OCC(O)C(O)C(O)c1nn(-c2ccccc2)c2nc3cc(Cl)c(Cl)cc3nc12 (stereo not drawn)
TGI (786-0 renal): > 100 µM | TGI (A549 NSCLC): > 100 µM | TGI (ACHN renal): > 100 µM | TGI (COLO 205 colon): > 100 µM | TGI (HCC-2998 colon): 98.4 µM | TGI (M14 melanoma): 41.1 µM | TGI (OVCAR-3 ovarian): > 100 µM | TGI (SK-MEL-2 melanoma): 98 µM

CS(=O)(=O)N(CCC#N)c1ccc(C=O)cc1
TGI (786-0 renal): > 100 µM | TGI (A549 NSCLC): > 100 µM | TGI (ACHN renal): > 100 µM | TGI (HCC-2998 colon): > 100 µM | TGI (M14 melanoma): > 100 µM | TGI (OVCAR-3 ovarian): > 100 µM | TGI (SK-MEL-2 melanoma): > 100 µM

O=c1oc2c3ccc4cnccc4c3[nH]c2c2ccccc12
GI50 (786-0 renal): 4.47 µM | TGI (786-0 renal): 17.6 µM | GI50 (A549 NSCLC): 3.96 µM | TGI (A549 NSCLC): > 100 µM | GI50 (ACHN renal): 31.5 µM | TGI (ACHN renal): > 100 µM | GI50 (BT-549 breast): 14.2 µM | TGI (BT-549 breast): 29.2 µM | GI50 (COLO 205 colon): 4.24 µM | TGI (COLO 205 colon): 17.4 µM | GI50 (M14 melanoma): 13.4 µM | TGI (M14 melanoma): 26.6 µM | GI50 (OVCAR-3 ovarian): 18.3 µM | TGI (OVCAR-3 ovarian): 32.4 µM | GI50 (PC-3 prostate): 55.8 µM | TGI (PC-3 prostate): > 100 µM | GI50 (SK-MEL-2 melanoma): 18.8 µM | TGI (SK-MEL-2 melanoma): 54.8 µM

COc1ccc2c(CCNC(=O)/C=C/c3ccccc3)c(C(C)=O)[nH]c2c1[N+](=O)[O-]
TGI (786-0 renal): > 100 µM | TGI (A549 NSCLC): > 100 µM | TGI (ACHN renal): > 100 µM | TGI (COLO 205 colon): > 100 µM | TGI (HCC-2998 colon): > 100 µM | TGI (M14 melanoma): > 100 µM | TGI (OVCAR-3 ovarian): > 100 µM | TGI (SK-MEL-2 melanoma): > 100 µM

O=C(O)c1ccccc1N=Nc1ccc2oc(=O)c(C(=O)Nc3ccccc3)cc2c1
TGI (786-0 renal): > 100 µM | TGI (A549 NSCLC): > 100 µM | TGI (ACHN renal): > 100 µM | TGI (COLO 205 colon): > 100 µM | TGI (M14 melanoma): > 100 µM | TGI (OVCAR-3 ovarian): 70.4 µM

O=c1cccccc1[O-].O=c1cccccc1[O-].O=c1cccccc1[O-].[Ce+3]
TGI (786-0 renal): 55.2 µM | TGI (A549 NSCLC): > 100 µM | TGI (ACHN renal): 96.3 µM | TGI (HCC-2998 colon): > 100 µM | TGI (M14 melanoma): > 100 µM | TGI (OVCAR-3 ovarian): 35.5 µM | TGI (SK-MEL-2 melanoma): 51.6 µM

Cc1ccccc1C(=O)Oc1ccc(OCc2ccccc2)cc1
TGI (786-0 renal): > 100 µM | TGI (A549 NSCLC): > 100 µM | TGI (ACHN renal): > 100 µM | TGI (COLO 205 colon): > 100 µM | TGI (HCC-2998 colon): > 100 µM | TGI (M14 melanoma): > 100 µM | TGI (OVCAR-3 ovarian): > 100 µM

COC12CCC(C(C(=O)c3ccccc3)=C1C(=O)c1ccccc1)C(O)C2 (stereo not drawn)
TGI (786-0 renal): > 100 µM | TGI (A549 NSCLC): > 100 µM | TGI (COLO 205 colon): > 100 µM | TGI (HCC-2998 colon): > 100 µM | TGI (M14 melanoma): > 100 µM | TGI (OVCAR-3 ovarian): > 100 µM | TGI (SK-MEL-2 melanoma): > 100 µM

COC(=O)[C@]12CC[C@@H](C)[C@H](C)[C@@H]1C1=CC[C@@H]3[C@@]4(C)C(C=O)=C[C@@](C)(COS(C)(=O)=O)C4[C@H](O)C[C@@]3(C)[C@]1(C)CC2 (stereo partly drawn)
GI50 (786-0 renal): 1.79 µM | TGI (786-0 renal): 3.58 µM | GI50 (A549 NSCLC): 2.64 µM | TGI (A549 NSCLC): 11 µM | GI50 (ACHN renal): 1.18 µM | TGI (ACHN renal): 2.56 µM | GI50 (COLO 205 colon): 1.85 µM | TGI (COLO 205 colon): 3.93 µM | GI50 (HCC-2998 colon): 1.69 µM | TGI (HCC-2998 colon): 3.12 µM | GI50 (M14 melanoma): 1.68 µM | TGI (M14 melanoma): 4.5 µM | GI50 (OVCAR-3 ovarian): 1.7 µM | TGI (OVCAR-3 ovarian): 3.33 µM | GI50 (PC-3 prostate): 1.39 µM | TGI (PC-3 prostate): 6.48 µM | GI50 (SK-MEL-2 melanoma): 2.06 µM | TGI (SK-MEL-2 melanoma): 5.03 µM

Nc1c(C(=O)N/N=C/c2ccc(-c3cc(Cl)c(Cl)cc3Cl)o2)cnn1-c1ccnc2c(C(F)(F)F)cccc12
GI50 (786-0 renal): 3.96 µM | TGI (786-0 renal): > 100 µM | GI50 (A549 NSCLC): 4.3 µM | TGI (A549 NSCLC): > 100 µM | GI50 (ACHN renal): 3.55 µM | TGI (ACHN renal): > 100 µM | GI50 (COLO 205 colon): 2.57 µM | TGI (COLO 205 colon): 5.78 µM | GI50 (HCC-2998 colon): 3.64 µM | TGI (HCC-2998 colon): > 100 µM | GI50 (M14 melanoma): 5.28 µM | TGI (M14 melanoma): > 100 µM | GI50 (OVCAR-3 ovarian): 3.1 µM | TGI (OVCAR-3 ovarian): > 100 µM | GI50 (PC-3 prostate): 2.09 µM | TGI (PC-3 prostate): 6.03 µM | GI50 (SK-MEL-2 melanoma): 5.31 µM | TGI (SK-MEL-2 melanoma): 34.3 µM

CCOC(=O)c1ccc(N2C(=O)Cc3ccccc3C2=O)cc1
TGI (786-0 renal): > 100 µM | TGI (A549 NSCLC): > 100 µM | TGI (ACHN renal): > 100 µM | TGI (HCC-2998 colon): > 100 µM | TGI (OVCAR-3 ovarian): > 100 µM | TGI (SK-MEL-2 melanoma): > 100 µM

CCc1ccc2nccc(NCCCN(C)C)c2c1[N+](=O)[O-]
TGI (786-0 renal): > 100 µM | TGI (A549 NSCLC): > 100 µM | TGI (ACHN renal): > 100 µM | TGI (COLO 205 colon): 94.1 µM | TGI (HCC-2998 colon): > 100 µM | TGI (M14 melanoma): 67.4 µM | TGI (OVCAR-3 ovarian): > 100 µM | TGI (PC-3 prostate): > 100 µM | TGI (SK-MEL-2 melanoma): > 100 µM

CC1(C(=O)O)CCOc2ccccc21 (stereo not drawn)
TGI (786-0 renal): > 100 µM | TGI (A549 NSCLC): > 100 µM | TGI (ACHN renal): > 100 µM | TGI (COLO 205 colon): > 100 µM | TGI (HCC-2998 colon): > 100 µM | TGI (M14 melanoma): > 100 µM | TGI (OVCAR-3 ovarian): > 100 µM

CCOC(=O)C1=C(Nc2ccc(Br)cc2)OC/C1=N\NC(=O)c1ccccc1O
TGI (786-0 renal): > 100 µM | TGI (A549 NSCLC): > 100 µM | TGI (ACHN renal): > 100 µM | TGI (COLO 205 colon): > 100 µM | TGI (HCC-2998 colon): > 100 µM | TGI (M14 melanoma): > 100 µM | TGI (OVCAR-3 ovarian): 77.7 µM | TGI (SK-MEL-2 melanoma): > 100 µM

CCOC(=O)C(C(=O)OCC)C(=O)c1ccccc1C(=O)c1ccccc1
TGI (786-0 renal): > 100 µM | TGI (A549 NSCLC): > 100 µM | TGI (ACHN renal): > 100 µM | TGI (BT-549 breast): > 100 µM | TGI (COLO 205 colon): > 100 µM | TGI (HCC-2998 colon): > 100 µM | TGI (M14 melanoma): > 100 µM | TGI (OVCAR-3 ovarian): > 100 µM | TGI (SK-MEL-2 melanoma): > 100 µM
